# US20250249001A1, “METHODS OF TREATING SUBSTANCE USE DISORDER WITH 4-(3-CYANOPHENYL)-6-PYRIDINYLPYRIMIDINE MGLU5 NEGATIVE ALLOSTERIC MODULATORS” (Tempero Bio, Inc., priority 2022, published 2025)
# What was measured:
# [1] = tested on: operant alcohol self-administration in Wistar rats; experiment: Operant alcohol self-administration, repeated oral pellet treatment (A-B-A); type: in vivo; details: 10 mg/kg oral in palatable food pellet, 2-hr before daily sessions, 7 days (Days 6-12)
# Procedure: Repeated treatment with Compound 1. To evaluate effects of repeated treatment with Compound 1 on operant alcohol self-administration, a separate group of rats (n=12) was trained to self-administer alcohol as described above. After operant behavior reached a stable baseline, habituation to i.p. injections were conducted as described above. […] Another group of rats (n=12) was then trained to self-administer alcohol and a new injection protocol (e.g., 2-hr pretreatment time) was initiated. […] In a final attempt to evaluate repeated treatment, we re-established baseline behavior in the same rats and administered Compound 1 (0 and 10 mg/kg) orally in a palatable food pellet as previously reported. Doses were administered according to an A-B-A (vehicle-Compound 1-vehicle) experimental design with 5 consecutive days of exposure to each vehicle treatment and 7 days of exposure to Compound 1. There was no observable stress response using this method of exposure. Operant self-administration (number of alcohol reinforced lever presses) was recorded during daily 15-min test sessions (n=12 rats).
# In a final attempt to salvage the study, injections were halted in the second group of rats and EtOH self-administration behavior was allowed to stabilize over a 1-week period. […]
# [2] = tested on: cue-induced reinstatement of alcohol-seeking behavior in Wistar rats; experiment: Cue-induced reinstatement of alcohol-seeking behavior; type: in vivo; details: 10 mg/kg IP
# Excerpt: Operant alcohol self-administration training. Male Wistar rats (n=12) were trained to self-administer alcohol in two-lever operant conditioning chambers as described above. A total of n=11 rats completed the experiment. […] Fluid cups were inspected at the end of each session to verify intake. Extinction.
# Cue-induced reinstatement test. On the next day, rats were given a reinstatement test in which lever press responses were followed by presentation of the cue light and auditory pump sound (as during training) but in the absence of ethanol reinforcement to examine cue-induced alcohol-seeking behavior (see Cue-induced reinstatement method FIG. 9A, right panel). One hour prior to the reinstatement session rats were divided into 2 equal subgroups groups and administered Compound 1 (0 or 10 mg/kg, IP) to determine if Compound 1 alters cue-induced reinstatement of alcohol-seeking behavior as compared to vehicle control. Groups were matched on body weight, baseline response totals, and extinction performance prior to drug testing. After this test, rats were returned to baseline conditions. […]
# [3] = Phase 1 multiple ascending dose study, exposure; type: in vivo, healthy subjects; details: 100 mg/day (50 mg twice per day) oral; study suspended at day 9 after dosage of 6 patients
# Excerpt: Example 5 presents the protocol for a suspended, multiple ascending dose (MAD) study to evaluate the safety, tolerability, and pharmacokinetics (PK) of Compound 1 in healthy subjects. In the following paragraphs, Example 5 is described in the future tense for sake of brevity; the study was suspended at day 9 after dosage of 6 patients. […] Example 6 presents the protocol for a planned, amended Phase 1 MAD study.
# Study Objectives and Endpoints—See Table 12 for Study Objectives and Endpoints. There will be up to 4 dose cohorts, and within each cohort subjects will be randomly assigned to receive either active drug or placebo. Study subjects will be administered active drug or placebo twice daily for 14 days (note: only the AM dose is administered on Day 14).
# Each subject will be randomly assigned to 1 of the following cohorts: Cohort 1: Group 1 (6 subjects): 50 mg of Compound 1 twice daily (bid); Group 2 (2 subjects): placebo (matching Compound 1) bid. Cohort 2: Group 3 (6 subjects): 100 mg of Compound 1 bid; Group 4 (2 subjects): placebo (matching Compound 1) bid. Cohort 3: Group 5 (6 subjects): 150 mg of Compound 1 bid; Group 6 (2 subjects): placebo (matching Compound 1) bid.
# [4] = tested on: Wistar rats, open-field locomotor activity; experiment: Open-field locomotor test for nonspecific behavioral effects; type: in vivo; details: 3 mg/kg i.p., 1-hr pretreatment
# Procedure: Locomotor activity: testing for nonspecific behavioral effects. After completion of the Compound 1 dose response curve, potential nonspecific effects of Compound 1 (3 mg/kg) were assessed using the open-field locomotor test. This test evaluates potential effects on motor activity and anxiety-like behavior. Rats were administered Compound 1 (0 or 3 mg/kg, i.p.) in a randomized counterbalanced order. After a 1-hr pretreatment period (matching the pretreatment period used in the drinking study), rats were placed in the open-field apparatus and locomotor activity was computer-monitored for 1-hr. To assess anxiety-like behavior, activity in the center zone of the open field was analyzed.
# Open-field locomotor test for nonspecific behavioral effects. Pharmacological manipulations have the potential to alter rodent behavior by producing nonspecific effects on motor ability, learning and memory, or emotional processing. The open field test is a widely used method for assessing all these potential nonspecific effects in a single test. In this method, rodents are injected with a test compound and placed in an open-field apparatus that records ambulatory behavior in real time via computer analysis of photobeam breaks (FIG. 3A). […] Similarly, Compound 1 (3 mg/kg) had no effect on summary measures of total ambulatory distance (FIG. 3C) or total ambulatory time (FIG. 3D) as compared to vehicle control.
smiles,measurement,setting,value
"N#Cc1cc(Cl)cc(-c2cc(-c3ccc(F)cn3)ncn2)c1 [Compound 1, 3-chloro-5-[6-(5-fluoropyridin-2-yl)pyrimidin-4-yl]benzonitrile]","EtOH reinforced lever press responses, repeated treatment",[1],failed to alter operant alcohol self-administration
same,"cue-induced reinstatement, total responses on the previously active lever",[2]; one hour prior to reinstatement session,blocked
same,"cue-induced reinstatement, responding relative to extinction performance",[2]; vehicle ~400% of extinction level,fully blocked
same,exposure in healthy subjects,[3],greater than expected exposure
same,motor activity in the center zone of the open field (anxiety-like behavior),[4],normal avoidance of the center zone
same,total ambulatory distance,[4],no effect
same,total ambulatory time,[4],no effect
same,initial exploration or habituation to the novel open-field environment,[4]; 1-hr test,no effect
